In one data set the target is T1, Lck (p56^lck) (Homo sapiens, UniProt P06239).
T1 construct: purchased UBI, Upstate Biotech, Inc
Description: SRC-Inhibitor-Assay (time-resolved fluorescence kinase assay), Lck. Format: biochemical. To be noted: ATP 5 μM, peptide 10 μM, enzyme 2.5 U/ml, pH 7.3. From the text:
(§1) The activity of the compounds according to this invention as inhibitors for the src-family tyrosine kinases was shown by using the following assay.
(§2) ATP, Tween™ 20, 4-(2-hydroxyethyl)-1-piperazineethanesulfonic acid (HEPES) were purchased from Roche Molecular Biochemicals, MgCl2 and MnCl2 were purchased from Merck Eurolab, Tris(2-carboxyethyl)phosphine hydrochloride (TCEP) was purchased from Pierce, 384 Well low volume fluorescence plates was purchased from Falcon.
(§3) At first the enzyme is pre-incubated for 15 min. at 15° C. in aqueous solution with corresponding amounts of inhibitors according to this invention. Then the phosphorylation reaction is started by adding a reaction mixture, containing ATP, Peptide and PT66, and subsequent shaking. The proceeding of this reaction is immediately monitored using time resolved fluorescence spectroscopy in a suitable well plate reader.
(§4) The IC50-values can be obtained from the reaction rates by using a non-linear curve fit (XLfit software (ID Business Solution Ltd., Guilford, Surrey, UK))

A further data set deals with T2, Src (p60^c-src) (Homo sapiens, UniProt P12931).
T2 construct: purchased UBI, Upstate Biotech, Inc
The experiment in a line: SRC-Inhibitor-Assay (time-resolved fluorescence kinase assay), Src. Format: biochemical. To be noted: ATP 5 μM, peptide 10 μM, enzyme 2.5 U/ml, pH 7.3.
Text: as §1, §2, §3, §4

pIC50: −log10 of the molar value.

We go through 14 compounds from US7786113B2, “Heterocyclic carbamate derivatives, their manufacture and use as pharmaceutical agents” (Hoffman-La Roche Inc., priority 2004, dated 2010).

T2 sequence (P12931 whole entry): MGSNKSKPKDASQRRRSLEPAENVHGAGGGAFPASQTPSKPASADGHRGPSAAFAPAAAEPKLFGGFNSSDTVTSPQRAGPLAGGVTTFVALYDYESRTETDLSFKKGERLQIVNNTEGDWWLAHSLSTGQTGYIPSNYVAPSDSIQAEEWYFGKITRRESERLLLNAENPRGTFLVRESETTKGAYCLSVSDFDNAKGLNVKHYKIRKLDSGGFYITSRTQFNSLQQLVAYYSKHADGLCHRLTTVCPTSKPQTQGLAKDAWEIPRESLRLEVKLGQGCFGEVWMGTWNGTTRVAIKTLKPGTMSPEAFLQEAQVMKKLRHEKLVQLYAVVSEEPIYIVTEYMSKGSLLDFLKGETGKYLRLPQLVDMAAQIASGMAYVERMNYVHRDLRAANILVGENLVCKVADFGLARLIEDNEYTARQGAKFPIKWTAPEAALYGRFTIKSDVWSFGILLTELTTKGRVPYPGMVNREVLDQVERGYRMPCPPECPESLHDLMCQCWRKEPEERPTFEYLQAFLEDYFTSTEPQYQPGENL
T1 sequence (P06239 whole entry): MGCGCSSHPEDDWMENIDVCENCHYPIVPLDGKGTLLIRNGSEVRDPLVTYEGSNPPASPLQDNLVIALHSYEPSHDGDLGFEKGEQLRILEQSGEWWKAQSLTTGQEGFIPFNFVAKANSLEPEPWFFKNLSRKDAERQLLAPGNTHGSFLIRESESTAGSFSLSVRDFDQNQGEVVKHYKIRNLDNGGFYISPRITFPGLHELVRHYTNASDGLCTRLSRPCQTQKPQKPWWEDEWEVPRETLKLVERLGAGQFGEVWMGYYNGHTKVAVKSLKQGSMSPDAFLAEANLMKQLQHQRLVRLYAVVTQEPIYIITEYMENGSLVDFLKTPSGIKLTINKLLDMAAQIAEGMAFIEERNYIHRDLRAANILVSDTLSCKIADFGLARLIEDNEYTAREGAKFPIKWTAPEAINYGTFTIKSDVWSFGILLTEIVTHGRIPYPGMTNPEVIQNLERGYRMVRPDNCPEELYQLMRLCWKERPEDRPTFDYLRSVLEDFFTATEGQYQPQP

In the case of `COCC(COC)NC(=O)c1cccc(-c2nc3cc(NC(=O)OC(C)C)cnc3[nH]2)c1` [Example 11-2, {2-[3-(2-Methoxy-1-methoxymethyl-ethylcarbamoyl)-phenyl]-3H-imidazo[4,5-b]pyridin-6-yl}-carbamic acid isopropyl ester], the pIC50 against Lck (p56^lck) is 5.05 to 7.00; against Src (p60^c-src), 6.30 to 8.00.
On to `CC(C)OC(=O)Nc1cnc2[nH]c(-c3ccnc(Cl)c3)nc2c1` [Example 12-1, [2-(2-Chloro-pyridin-4-yl)-3H-imidazo[4,5-b]pyridin-6-yl]-carbamic acid isopropyl ester], for which the negative-log IC50 (pIC50) is 5.05 to 7.00 on Lck (p56^lck) and 6.30 to 8.00 at Src (p60^c-src).
With `CC(C)OC(=O)Nc1cnc2[nH]c(-c3ccsc3)nc2c1` [Example 2-7, (2-Thiophen-3-yl-3H-imidazo[4,5-b]pyridin-6-yl)-carbamic acid isopropyl ester], the melting point is 342 °C (dec.).
On to `CC(C)OC(=O)Nc1cnc2[nH]c(-c3ccccc3)cc2c1` [Example 9-1, (2-Phenyl-1H-pyrrolo[2,3-b]pyridin-5-yl)-carbamic acid isopropyl ester], for which the pIC50 on Lck (p56^lck) is 5.05 to 7.00; at Src (p60^c-src), 6.30 to 8.00.
With `COCCCNC(=O)c1cccc(-c2nc3cc(NC(=O)OC(C)C)cnc3[nH]2)c1` [Example 11-3, {2-[3-(3-Methoxy-propylcarbamoyl)-phenyl]-3H-imidazo[4,5-b]pyridin-6-yl}-carbamic acid isopropyl ester], the values for the pIC50 on Lck (p56^lck) and on Src (p60^c-src) were 5.05 to 7.00 and 6.30 to 8.00, respectively.
In the case of `CC(C)OC(=O)Nc1cnc2[nH]c(-c3ccc(N)cc3)nc2c1` [Example 5-2, [2-(4-Amino-phenyl)-3H-imidazo[4,5-b]pyridin-6-yl]-carbamic acid isopropyl ester], the negative-log IC50 (pIC50) at Lck (p56^lck) is 5.05 to 7.00; against Src (p60^c-src) it was 6.30 to 8.00.
The matching figures for `CCN(CC)CCOc1ccc(-c2nc3cc(NC(=O)OC(C)C)cnc3[nH]2)cc1` [Example 2-1, {2-[4-(2-Diethylamino-ethoxy)-phenyl]-3H-imidazo[4,5-b]pyridin-6-yl}-carbamic acid isopropyl ester]: 5.05 to 7.00 and 6.30 to 8.00.
As to `CC(C)OC(=O)Nc1cnc2[nH]c(-c3cccc([N+](=O)[O-])c3)nc2c1` [Example 2-4, [2-(3-Nitro-phenyl)-3H-imidazo[4,5-b]pyridin-6-yl]-carbamic acid isopropyl ester], the results for the pIC50 against Lck (p56^lck) and against Src (p60^c-src) were 5.87 and 6.73, respectively.
With `CC(C)OC(=O)Nc1cnc2[nH]c(-c3ccc([N+](=O)[O-])cc3)nc2c1` [Example 3-4, [2-(4-Nitro-phenyl)-3H-imidazo[4,5-b]pyridin-6-yl]-carbamic acid isopropyl ester], the pIC50 at Lck (p56^lck) was 5.05 to 7.00; against Src (p60^c-src) it was 6.30 to 8.00.
On the same counts, the results for `CC(C)OC(=O)Nc1cnc2[nH]c(-c3cccc(C(=O)O)c3)nc2c1` [Example 11-1, 3-(6-Isopropoxycarbonylamino-3H-imidazo[4,5-b]pyridin-2-yl)-benzoic acid] are 5.05 to 5.70 and 5.82 to 6.30.
On to `CC(C)OC(=O)Nc1cnc2[nH]c(-c3ccc(N4CCOCC4)nc3)nc2c1` [Example 3-7, [2-(6-Morpholin-4-yl-pyridin-3-yl)-3H-imidazo[4,5-b]pyridin-6-yl]-carbamic acid isopropyl ester], for which the pIC50 was 5.05 to 7.00 against Lck (p56^lck) and 6.30 to 8.00 on Src (p60^c-src).
As for `CC(OC(=O)Nc1cnc2[nH]c(-c3ccccc3)nc2c1)c1ccccc1` (stereo not drawn) [Example 1-13, (2-Phenyl-3H-imidazo[4,5-b]pyridin-6-yl)-carbamic acid 1-phenyl-ethyl ester], the pIC50 against Lck (p56^lck) was 5.05 to 7.00; against Src (p60^c-src), 6.30 to 8.00.
For the compound `Cc1cc(-c2nc3cc(NC(=O)OC(C)C)cnc3[nH]2)ccn1` [Example 3-1, [2-(2-Methyl-pyridin-4-yl)-3H-imidazo[4,5-b]pyridin-6-yl]-carbamic acid isopropyl ester], the values for the pIC50 against Lck (p56^lck) and against Src (p60^c-src) were 5.05 to 7.00 and 6.30 to 8.00, respectively.
In the case of `CC(C)OC(=O)Nc1cnc2[nH]c(-c3ccc([S+](C)[O-])cc3)nc2c1` (stereo not drawn) [Example 8-4, [2-(4-Methanesulfinyl-phenyl)-3H-imidazo[4,5-b]pyridin-6-yl]-carbamic acid isopropyl ester], the pIC50 is 5.05 to 7.00 against Lck (p56^lck) and 6.30 to 8.00 against Src (p60^c-src).
